According to US20230321265A1, “KAPPA OPIOID RECEPTOR AGONIST-THERAPEUTIC ANTIGEN BINDING PROTEIN CONJUGATE (KTAC) COMPOUNDS” (Cara Therapeutics, Inc., priority 2020, published 2023):
Marks after values point to notes of the source that are not given here.

Columns and labels:
[1] = test system: LPS-Induced Cytokine Release; experiment: LPS-induced cytokine release in mice (Luminex); format: in vivo, female Balb/c mice; conditions: 30 min before LPS 1 mg/kg IP, serum 2 hr post-LPS
From the text: Data were summarized as percent reduction from vehicle-treated controls (n = 8/group). (*p<0.05 vs. vehicle; unpaired t-test).

[2] = test system: human rheumatoid arthritis (RA) synoviocytes; experiment: TNF-alpha release from human rheumatoid arthritis synoviocytes stimulated with interferon-gamma and anti-CD40 antibody; conditions: 48 hour period
Method: Concentrations of TNF-alpha are then measured in tissue culture supernatants by multiplex immunoassay.

[3] = test system: LPS-induced TNF release; experiment: LPS-induced serum TNF-alpha in mice (ELISA); format: in vivo, female Balb/c mice; conditions: 3 and 10 mg/kg SC, 30 min before LPS 1 mg/kg IP, serum 2 hours post-LPS
Method: FIG. 5 Reduction in LPS-induced TNF release in Mice Pretreated with SC CR845 at 1, 3 and 10 mg/kg; and separately showing a comparison of the effect of prednisone as compared with vehicle alone.
Thirty minutes later, mice were injected IP with the bacterial lipopolysaccharide (LPS, 1 mg/kg) and serum samples collected 2 hours post-LPS treatment (n = 8/group). TNF-alpha levels in serum were determined by ELISA.

[4] = test system: Human monocyte-derived macrophages; experiment: Cytokine release from LPS/IFN-γ stimulated human monocyte-derived macrophages (multiplex immunoassay); format: cell-based
Method: Human monocyte-derived macrophages were stimulated with lipopolysaccharide (LPS) and interferon gamma (IFN-γ) in the presence and absence of CR845 or interleukin-10 (IL-10; 10 ng/mL). Cytokine release in the 18-hour supernatants was measured by multiplex immunoassay (N=4 donors per condition, with assays run in triplicate), with results expressed as mean cytokine release (± SEM) following stimulation with LPS and IFN-γ. […] The minimum effective concentration was 2.0 nM, which was the lowest concentration tested (see Table 1).
Statistical comparisons: *, P<0.05; **, P<0.01; ***, P<0.001 compared with LPS/IFN-γ alone; ##, P<0.001 compared with LPS/IFN-γ + CR845 at 50 nM §, P<0.05 compared with LPS/IFN-γ + CR845 at 50 nM; ¶, P<0.005 compared with LPS/IFN-γ; ¶¶, P<0.001 compared with LPS/IFN-γ

[5] = test system: carrageenan-induced paw swelling; experiment: Carrageenan-induced paw edema in rats; format: in vivo, male SD rats
Method: FIG. 6: Intravenous CR845 Produces Dose-Dependent Inhibition of Carrageenan-Induced Paw Edema Formation in Rats: Chart showing paw volume after administration of vehicle alone, or vehicle plus 0.1, 0.3 or 1.0 mg/kg CR845.
In a rat model of inflammatory disease, intraplantar injection of carrageenan in one hind paw is commonly used to produce acute inflammation, resulting in the swelling of the inoculated paw (Stein, Millan et al. 1988). Animals were administered CR845 IV (tail vein, 1 mL/kg) 30 min prior to intraplantar carrageenan administration (100 µL 2% carrageenan into left hind paw; n=6/group). Paw volumes were assessed 3.5 hr post treatment (i.e., 3 hr post-carrageenan injection).

[6] = LPS/IFNγ stimulated, CR845 50 nM, 18-hour supernatant, mean (SEM)
[7] = LPS/IFNγ stimulated, nor-BNI 10 nM alone, mean (SEM)

CC(C)C[C@@H](NC(=O)[C@@H](Cc1ccccc1)NC(=O)[C@H](N)Cc1ccccc1)C(=O)N[C@H](CCCCN)C(=O)N1CCC(N)(C(=O)O)CC1 [CR845, D-Phe-D-Phe-D-Leu-D-Lys-[ω(4-aminopiperidine-4carboxylic acid)]-OH]
GM-CSF % Inhibition ([1]; CR845 10 mg/kg SC): 7% | IL-1α % Inhibition ([1]; CR845 10 mg/kg SC): -37% | IL-1β % Inhibition ([1]; CR845 10 mg/kg SC): 26* % | IL-2 % Inhibition ([1]; CR845 10 mg/kg SC): 23* % | IL-4 % Inhibition ([1]; CR845 10 mg/kg SC): 21% | IL-6 % Inhibition ([1]; CR845 10 mg/kg SC): -10% | IL-10 % Inhibition ([1]; CR845 10 mg/kg SC): 26% | IL-12 (p40/p70) % Inhibition ([1]; CR845 10 mg/kg SC): 23* % | MCP-1 % Inhibition ([1]; CR845 10 mg/kg SC): -11% | MIP-1α % Inhibition ([1]; CR845 10 mg/kg SC): 19% | MIP-1β % Inhibition ([1]; CR845 10 mg/kg SC): 19* % | TNFα % Inhibition ([1]; CR845 10 mg/kg SC): 47* % | TNF-alpha release (CD-40/interferon-gamma stimulated release standardized to 100) ([2]; 0.1 nM): 20 | TNF-alpha release (CD-40/interferon-gamma stimulated release standardized to 100) ([2]; 0.3 nM): -25 | serum TNF-alpha suppression [3]: dose-dependent suppression of TNF-alpha that is statistically significant | IL-6 release ([4]; LPS/IFNγ stimulated, CR845 10 nM, 18-hour supernatant, mean (SEM)): 398.0 (108.4) pg/mL | IL-6 release [4, 6]: 563.7 (53.9) pg/mL | IL-8 release [4, 6]: 1211 (56.7) pg/mL | minimum effective concentration for reduction of cytokine secretion ([4]; lowest concentration tested): 2.0 nM | secretion of TNF, IL-1β, IL-6, IL-8 and GCSF following stimulation with LPS and IFN-γ ([4]; primary human macrophages, vs. vehicle): significantly reduced | minimum effective IV dose for reduction of carrageenan-induced paw swelling ([5]; IV 30 min prior to carrageenan, paw volume at 3.5 hr post-injection): 0.3 mg/kg | carrageenan-induced paw swelling ([5]; IV, 0.1, 0.3 or 1.0 mg/kg, vs. vehicle): significantly reduces carrageenan-induced paw swelling

C[C@]12C=CC(=O)C=C1CC[C@@H]1[C@@H]2[C@@H](O)C[C@@]2(C)[C@H]1CC[C@]2(O)C(=O)CO [Prednisolone, prednisolone]
IL-1α % Inhibition ([1]; Prednisolone 3 mg/kg SC): 50* % | IL-1β % Inhibition ([1]; Prednisolone 3 mg/kg SC): 39* % | IL-2 % Inhibition ([1]; Prednisolone 3 mg/kg SC): 24* % | IL-4 % Inhibition ([1]; Prednisolone 3 mg/kg SC): 41* % | IL-6 % Inhibition ([1]; Prednisolone 3 mg/kg SC): -2% | IL-10 % Inhibition ([1]; Prednisolone 3 mg/kg SC): 59* % | IL-12 (p40/p70) % Inhibition ([1]; Prednisolone 3 mg/kg SC): 45* % | MCP-1 % Inhibition ([1]; Prednisolone 3 mg/kg SC): -14% | MIP-1α % Inhibition ([1]; Prednisolone 3 mg/kg SC): 35* % | MIP-1β % Inhibition ([1]; Prednisolone 3 mg/kg SC): 19* % | TNFα % Inhibition ([1]; Prednisolone 3 mg/kg SC): 64* %

CCCC1O[C@@H]2C[C@H]3[C@@H]4CCC5=CC(=O)C=C[C@]5(C)[C@H]4[C@@H](O)C[C@]3(C)[C@]2(C(=O)CO)O1 (stereo partly shown) [budesonide]
TNF-alpha release (CD-40/interferon-gamma stimulated release standardized to 100) ([2]; positive control, concentration not given): -25

Oc1ccc2c3c1O[C@H]1c4[nH]c5c(c4C[C@@]4(O)[C@@H](C2)N(CC2CC2)CC[C@]314)C[C@@]1(O)[C@H]2Cc3ccc(O)c4c3[C@@]1(CCN2CC1CC1)[C@H]5O4 [nor-BNI]
G-CSF release [4, 7]: 1214 (29.9) pg/mL | IL-1 release [4, 7]: 39.9 (1.1) pg/mL | IL-6 release [4, 7]: 803.9 (0.6) pg/mL | IL-8 release [4, 7]: 1595 (13.3) pg/mL | TNF release [4, 7]: 7186 (174.8) pg/mL | effect of nor-BNI on the cytokine-reducing effect of CR845 ([4]; selective kappa opioid antagonist added to CR845): blocked
